Results on 8 molecules are retold here after patent US5220017A, “Cholecystokinin antagonists” (Merck & Co., Inc., priority 1992, dated 1993).

Each structure is given as a SMILES string. Non-standard residues stand in square brackets, D forms with d. Residues, ends and D or L forms follow the SMILES beside them. *: point of attachment. sY = N[C@@H](Cc1ccc(OS(=O)(=O)O)cc1)C(=O)O; Cbz = O=C(OCc1ccccc1)*; Boc = CC(C)(C)OC(=O)*

Experiment [1] relates to CCK-B receptors. The settings on record: literature, in words; cited from earlier work.
Experiment [2] relates to CCK receptor. The settings on record: literature, in words; cited from earlier work.
In experiment [3] the target is T1, CCK receptor (rat pancreas) (Rattus norvegicus, UniProt P30551).
T1 construct: The whole pancreas was dissected free of fat tissue and was homogenized; from tissue; host or cells: whole pancreas membranes, male Sprague-Dawley rat
T1 sequence (P30551 1-444): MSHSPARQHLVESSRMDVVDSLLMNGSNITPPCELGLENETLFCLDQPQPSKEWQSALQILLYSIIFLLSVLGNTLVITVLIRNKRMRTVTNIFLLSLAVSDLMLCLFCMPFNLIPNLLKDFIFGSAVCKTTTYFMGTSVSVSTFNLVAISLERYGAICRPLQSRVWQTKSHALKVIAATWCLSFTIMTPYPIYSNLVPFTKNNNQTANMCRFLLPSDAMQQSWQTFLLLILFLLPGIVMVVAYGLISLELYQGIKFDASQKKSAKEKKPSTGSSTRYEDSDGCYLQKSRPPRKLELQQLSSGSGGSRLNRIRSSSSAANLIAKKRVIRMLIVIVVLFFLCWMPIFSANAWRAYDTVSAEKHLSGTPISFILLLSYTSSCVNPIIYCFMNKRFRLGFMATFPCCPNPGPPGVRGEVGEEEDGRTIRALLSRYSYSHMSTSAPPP
The experiment in a line: CCK Receptor Binding (Pancreas), 125I-CCK-8 displacement. Details: species or system rat (male Sprague-Dawley). As for the experimental part: 1. CCK Receptor Binding (Pancreas)
CCK-8 sulphated was radiolabelled with ^125 I-Bolton Hunter reagent (2000 Ci/mmole). Receptor binding was performed according to Chang and Lotti (Proc. Natl. Acad. Sci. 83, 4923-4926, 1986) with minor modifications.
Male Sprague-Dawley rats (150-200 g) were sacrificed by decapitation. The whole pancreas was dissected free of fat tissue and was homogenized in 25 volumes of ice-cold 10 mM Hepes buffer with 0.1% soya bean trypsin inhibitor (pH 7.4 at 25° C.) with a Kinematica Polytron. The homogenates were centrifuged at 47,800 g for 10 min. Pellets were resuspended in 10 volumes of binding assay buffer (20 mM Hepes, 1 mM EGTA, 5 mM MgCl2, 150 mM NaCl, bacitracin 0.25 mg/ml, soya bean trypsin inhibitor 0.1 mg/ml, and bovine serum albumin 2 mg/ml, pH 6.5 at 25° C.) using a teflon homogenizer, 15 strokes at 500 rpm. The homogenate was further diluted in binding assay buffer to give a final concentration of 0.5 mg original wet weight/1 ml buffer. […] All assays were run in duplicate. […] The radioactivity on the filters was counted with a LKB gamma counter. […]
(§1) Drug displacement studies were performed with at least 10 concentrations of compounds of formula 1 and the IC50 values were determined by regression analysis.

The target of experiment [4] is T2, CCK receptor (guinea pig brain cortex) (Cavia porcellus, UniProt H0VZC5).
T2 construct: the cortex was removed and homogenized in 25 mL ice-cold 0.32M sucrose; from tissue; host or cells: brain cortex P2 membranes, male Hartley guinea pig
T2 sequence (H0VZC5 1-426): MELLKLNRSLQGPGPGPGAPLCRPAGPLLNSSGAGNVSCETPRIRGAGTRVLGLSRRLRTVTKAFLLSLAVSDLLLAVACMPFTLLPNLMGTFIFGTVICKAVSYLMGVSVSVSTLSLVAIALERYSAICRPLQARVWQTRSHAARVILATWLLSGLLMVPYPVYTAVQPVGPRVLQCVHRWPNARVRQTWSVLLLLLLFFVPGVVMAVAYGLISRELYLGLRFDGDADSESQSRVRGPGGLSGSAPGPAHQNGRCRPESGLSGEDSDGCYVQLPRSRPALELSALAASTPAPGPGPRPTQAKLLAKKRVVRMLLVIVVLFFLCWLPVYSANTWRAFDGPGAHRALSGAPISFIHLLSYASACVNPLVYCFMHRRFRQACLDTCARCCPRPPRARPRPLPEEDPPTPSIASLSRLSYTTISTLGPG
Nature of the experiment: CCK Receptor Binding (Brain), 125I-CCK-8 displacement. More on the design: species or system guinea pig (male Hartley). The note with it: guinea pig cortex membranes, 50 pM 125I-CCK-8, 25° C., 2 hours, pH 6.5. As for the experimental part:
2. CCK Receptor Binding (Brain)
CCK-8 sulphated was radiolabelled and the binding was performed according to the description for the pancreas method with minor modifications.
Male Hartley guinea pigs (300-500 g) were sacrificed by decapitation and the cortex was removed and homogenized in 25 mL ice-cold 0.32M sucrose. The homogenates were centrifuged at 1000 g for 10 minutes and the resulting supernatant was recentrifuged at 20,000 g for 20 minutes. […] All assays were run in duplicate. The reaction mixtures were incubated at 25° C. for 2 hours and then the reaction was terminated on Whatman GF/C filters by rapid filtration (Brandell 24 well cell Harvester) with 3×5 ml washes of cold 100 mM NaCl. The radioactivity on the filters was then counted with a LKB gamma counter.
Effect of The Compounds of Formula I on ^125 I-CCK-8 receptor binding
as §1

Experiment [5] has as its system gastrin. The settings on record: literature, in words; cited from earlier work.

As to `Cc1cccc(NC(=O)N[C@@H]2N=C(c3ccccc3)c3ccccc3N(C)C2=O)c1` [(R)-N-(2,3-dihydro-1-methyl-2-oxo-5-phenyl-1H-1,4-benzodiazepin-3-yl)-N^1-(3-methylphenyl) urea], in experiment [1], the “CCK-B antagonist potency and selectivity” value was “potent and selective antagonist of CCK-B receptors”.
Consider `CSCC[C@H](NC(=O)OC(C)(C)C)C(=O)N[C@@H](CC(=O)O)C(=O)N[C@@H](Cc1ccccc1)C(N)=O` [Boc-Met-Asp-Phe-NH2] (Boc-Met-Asp-Phe-NH2), for which the CCK antagonist/agonist character entry in experiment [2] is recorded as “can function as CCK antagonists”.
On to `CSCC[C@H](NC(=O)[C@H](Cc1ccc(OS(=O)(=O)O)cc1)NC(=O)OCc1ccccc1)C(=O)NCC(=O)N[C@@H](Cc1c[nH]c2ccccc12)C(=O)N[C@@H](CCSC)C(=O)N[C@@H](CC(=O)O)C(N)=O` [Cbz-Tyr(SO3 H)-Met-Gly-Trp-Met-Asp-NH2] (Cbz-[sY]MGWMD-NH2), for which the CCK antagonist/agonist character result in experiment [2] is “partial agonist”.
What is called IC50 is the midpoint of a concentration-inhibition curve. A higher IC50 goes with a need for much substance. As to `Cc1cccc(N(CCC(=O)O)C(=O)NC2N=C(c3ccccc3)c3ccccc3N(C)C2=O)c1` (stereo not shown) [Example 1, N-{1,3-Dihydro-1-methyl-2-oxo-5-phenyl-1H-1,4-benzodiazepin-3-yl}-N'-carboxyethyl-N'-{[3-methylphenyl]-urea}], the figures for the IC50 in experiment [3] and in experiment [4] were greater than 3 µM and 3.68 µM, respectively.
With `Cc1cccc(NC(=O)N(CCC(=O)O)C2N=C(c3ccccc3)c3ccccc3N(C)C2=O)c1` (stereo not shown) [Example 2, N-{1,3-Dihydro-1-methyl-2-oxo-5-phenyl-1H-1,4-benzodiazepin-3-yl}-N-carboxyethyl-N'-{[3-methylphenyl]-urea}], the results for the half-maximal inhibitory concentration (IC50) in experiment [3] and in experiment [4] were greater than 3 µM and 0.51 µM, respectively.
For `CSCC[C@H](N)C(=O)N[C@@H](CC(=O)O)C(=O)N[C@@H](Cc1ccccc1)C(N)=O` [Met-Asp-Phe-NH2] (H-Met-Asp-Phe-NH2), the CCK antagonist/agonist character entry in experiment [2] is listed as “can function as CCK antagonists”.
With `CCCC(=O)Nc1nc2c(ncn2C2O[C@H]3COP(=O)(O)O[C@@H]3[C@@H]2OC(=O)CCC)c(=O)[nH]1` (stereo partly shown) [dibutyryl cyclic GMP], the CCK antagonist/agonist character entry in experiment [2] was “most potent”.
Consider `CCCN(CCC)C(=O)C(CCC(=O)O)NC(=O)c1ccccc1` (stereo not shown) [proglumide], for which, in experiment [5], the “gastrin antagonism in vitro” value is on record as “very weak in vitro antagonists”.
